The text below walks through data of patent publication US12377052B2, “Dual-responsive nanoparticles for enhanced antibacterial efficacy” (priority 2020, dated 2025).

In brackets after ≈: the same amount, converted by molar mass. Read-outs that look alike come from different tables or passages of the source. Bounds are passed on as bounds.

The term IC50 denotes the concentration that inhibits the measured activity by half. Read a high IC50 as weaker potency in that assay.

One assay deals with MRSA (ATCC 33591). Put plainly: MIC, broth microdilution. It is filed as cell-based, S. aureus. The protocol:
(§1) Bacterial strains. S. aureus Newman was kindly provided by Prof. Douglas Weibel; E. coli ATCC25922, S. aureus ATCC 33591 and P. aeruginosa ATCC 27853 were purchased from ATCC. E. coli DH5a was purchased from Thermo Fisher. These bacteria were grown in Mueller Hinton Broth (MHB) media (Criterion, Santa Maria, CA, USA). M. smegmatis mc^2155 strain was kindly provided by Prof. Adel M. Talaat's laboratory, and it was grown in Middlebrook 7H9 broth (HiMedia, West Chester, PA, USA).
(§2) Minimal inhibitory concentration (MIC) measurements. The MIC of the different treatments on various bacteria strains was determined using the Clinical Laboratory Standards Institute broth microdilution method^8. Briefly, broth media (100 μL) containing two-fold serial dilutions of each compound were placed into a 96-well tissue culture plate. Each bacterial strain was taken from an exponentially growing culture and diluted to 5×10^6 CFU/mL. Ten microliters of such microbial suspension was inoculated in each well of the plate, resulting in a final bacteria concentration of approximately 5×10^5 CFU/mL. The bacteria were cultured at 37° C. for one day and their growth was observed by reading the optical density (OD) at 600 nm. The MIC was determined as the treatment concentration at which no microbial growth was observed. Broth containing microbial cells alone was used as a positive control and broth without bacteria inoculation was used as a negative control. Each test was carried out in 3 replicates.
On the technique in general: Broth dilution looks for growth in wells or tubes with falling amounts of substance.

For assay [1], the system named is P. aeruginosa (ATCC 27853). Nature of the assay: MIC, broth microdilution. It is filed as cell-based. The protocol: as §1, §2
For a further assay, the system named is MRSA. Put plainly: Checkerboard assay, FIC index. It is filed as cell-based, S. aureus. Particulars: antibiotic with the PBAE-G polymer. The protocol: (§3) Fractional inhibitory concentration (FIC) measurement. The synergy between the cationic polymer and antibiotic was assessed by checkerboard assays. The two antibacterial components were mixed in a 96-well plate with serial two-dimensional dilutions. Bacteria were inoculated in each well of the plate and their growth, reflected by the OD600 value, was monitored. The synergy effect was evaluated by calculating the FIC index according to the formula below:
(§4) [formula] MICA^Comb and MICB^Comb indicate the MICS of the two components in combination. The interactions between the two components are defined according to standard criteria of considering FIC≤0.5 as synergistic; 0.5<FIC≤1 as additive; 1<FIC≤4 as indifference; and FIC>4 as antagonism.

Assay [2] concerns P. aeruginosa (ATCC 27853). Put plainly: Checkerboard assay, FIC index. To be noted: for FIC index: antibiotic with the PBAE-G polymer. Type of assay: cell-based. The protocol:
as §3, §4

The subject of the next assay is E. coli (ATCC 25922). Put plainly: MIC, broth microdilution. It is filed as cell-based. Particulars: Escherichia coli, ATCC25922; no pH/H2O2 stimulus stated. The protocol: as §1, §2
The subject of the next assay is E. coli (DH5 alpha). Nature of the assay: MIC, broth microdilution. Type of assay: cell-based. To be noted: Escherichia coli; no pH/H2O2 stimulus stated. The protocol: as §1, §2
For assay [3], the system named is M. smegmatis (MC^2 155). Put plainly: MIC, broth microdilution. It is filed as cell-based. To be noted: Mycolicibacterium smegmatis, MC^2155; no pH/H2O2 stimulus stated. The protocol: as §1, §2
The subject of another assay is S. aureus (Newman). Nature of the assay: MIC, broth microdilution. Type of assay: cell-based. To be noted: Staphylococcus aureus, no pH/H2O2 stimulus stated. The protocol: as §1, §2
Assay [4] has as its system M. smegmatis (MC^2 155). Nature of the assay: Checkerboard assay, FIC index. Type of assay: cell-based. Particulars: low pH and high ROS condition. The protocol: as §3, §4
Assay [5] relates to Raw 264.7 murine macrophage cells. Put plainly: Cell viability test (MTT assay). It is filed as cell-based. To be noted: Mus musculus, RAW264.7, 24 h, one day treatment. The protocol:
Cell viability test. Cytotoxicity of different NP components was tested using MTT assays. Raw 264.7 murine macrophage cells were seeded onto a 96-well plate (1×10^4 cells/well) and cultured overnight. The cells were then treated with free antibiotic, PBAE-G polymer or NP with serial dilutions for one day and their viability was measured by a standard MTT assay. Data were collected by monitoring the difference between the absorbance at 560 nm and 650 nm using a GloMax-Multi Microplate Multimode Reader (Promega, WI, USA).
(In general: Formazan colour is commonly taken as a measure of viable cells.)

In a further assay the test system is MRSA biofilm. Put plainly: Biofilm inhibition assay (crystal violet). It is filed as cell-based, S. aureus. To be noted: 32 μg/mL. The protocol: Biofilm inhibition assays. Exponentially growing bacteria were inoculated into 96 well plates (1×10^4 cell/well) containing MHB broth with 2% (w/v) glucose, and incubated under stationary conditions at 37° C. for one day. After biofilm formation, the medium was discarded, and the plates were washed with PBS to remove the planktonic bacteria. Fresh MHB broth containing serially diluted free rifampicin or NP was added to the plates and incubated at 37° C. for another 24 h. The media in each well was then removed, and the plates were washed carefully with PBS one time. The biofilm in each well was fixed with 95% ethanol for 15 min and stained with 0.1% crystal violet for 15 min. After the biofilm was washed with Milli-Q water for three times, 33% v/v acetic acid (100 μL/well) was added to the plate to solubilize the crystal violet staining. OD 560 in each well was read to assess the biofilm formation.

The subject of a further assay is E. coli ATCC 25922. Nature of the assay: Evaluation of antibiotic resistance development (serial passaging). It is filed as cell-based. To be noted: sub-lethal dose (0.5 MIC), after 20 passages. The protocol:
Evaluation of antibiotic resistance development. […] The OD 600 value in each tube was examined to determine the MIC, and the bacteria cultured in the tube containing rifampicin at a ½ MIC was used for passage. The MIC for each passage was recorded and compared to that of the first passage to determine the drug resistance enhancement.

Setting [6] is: Table 1, antibiotic alone, in µg/mL (unit assumed).

`CN[C@H](CC(C)C)C(=O)N[C@H]1C(=O)N[C@@H](CC(N)=O)C(=O)N[C@H]2C(=O)N[C@H]3C(=O)N[C@H](C(=O)N[C@H](C(=O)O)c4cc(O)cc(O)c4-c4cc3ccc4O)[C@H](O)c3ccc(c(Cl)c3)Oc3cc2cc(c3O[C@@H]2O[C@H](CO)[C@@H](O)[C@H](O)[C@H]2O[C@H]2C[C@](C)(N)[C@H](O)[C@H](C)O2)Oc2ccc(cc2Cl)[C@H]1O` [Vancomycin]: the MIC is 1 µg/mL (≈ 0.69 µM) against MRSA (ATCC 33591) (Table 1, antibiotic alone) and 1024 in assay [1] (setting [6]). Further, the FIC index stood at 1 in the assay on MRSA and 2 in assay [2].

For `CO[C@H]1/C=C/O[C@@]2(C)Oc3c(C)c(O)c4c(O)c(c(/C=N/N5CCN(C)CC5)c(O)c4c3C2=O)NC(=O)/C(C)=C\C=C\[C@H](C)[C@H](O)[C@@H](C)[C@@H](O)[C@@H](C)[C@H](OC(C)=O)[C@@H]1C` [Rifampicin], the MIC in the assay with MRSA (ATCC 33591) (Staphylococcus aureus, no pH/H2O2 stimulus stated, read-out: MIC MRSA (ATCC 33591)) was found to be 0.016 µg/mL (≈ 0.0194 µM); in the assay with MRSA (ATCC 33591) (Table 1, antibiotic alone), 0.016 µg/mL (≈ 0.0194 µM); against E. coli (ATCC 25922) it was 16 µg/mL (≈ 19.4 µM); with E. coli (DH5 alpha), 16 µg/mL (≈ 19.4 µM); with M. smegmatis (MC^2 155) [3], 128 µg/mL (≈ 156 µM); in [1] (Pseudomonas aeruginosa, ATCC27853, no pH/H2O2 stimulus stated, read-out: MIC P. aeruginosa (ATCC 27853)) it was 32 µg/mL (≈ 38.9 µM). The figures for the MIC (in assay [1] (setting [6]); against S. aureus (Newman)) were 32 and 0.016 µg/mL (≈ 0.0194 µM), respectively. The FIC index is on record as 1 in the assay with MRSA and 0.25 in assay [2]. The “FIC index between rifampicin and the PBAE-G-B polymer” value is 0.25 in the assay on M. smegmatis (MC^2 155) [4]; 0.188 in assay [2] (low pH and high ROS condition). This compound returned an IC50 in assay [5] of 210 µg/mL (≈ 255 µM). Besides, the biofilm remained entry in the assay on MRSA biofilm was “More than 80%”. In addition, the “MIC increase compared to initial” value in the assay on E. coli ATCC 25922 amounted to 40 fold.

Consider `O=C(O)c1cn(C2CC2)c2cc(N3CCNCC3)c(F)cc2c1=O` [Ciprofloxacin], for which the MIC against MRSA (ATCC 33591) (Table 1, antibiotic alone) is 0.5 µg/mL (≈ 1.51 µM); in assay [1] (setting [6]), 0.25. For the same compound, the FIC index in the assay on MRSA is recorded as 2; in assay [2], 1.

For `CC1(C)S[C@@H]2[C@H](NC(=O)[C@H](N)c3ccc(O)cc3)C(=O)N2[C@H]1C(=O)O` [Amoxicillin], the MIC was 128 µg/mL (≈ 350 µM) against MRSA (ATCC 33591) (Table 1, antibiotic alone) and 1024 in assay [1] (setting [6]). The values for the FIC index (with MRSA; in assay [2]) were 0.75 and 2, respectively.

As for `CCC[C@@H]1C[C@@H](C(=O)N[C@@H]([C@H]2O[C@H](SC)[C@H](O)[C@@H](O)[C@H]2O)[C@H](C)Cl)N(C)C1` [Clindamycin], the MIC against MRSA (ATCC 33591) (Table 1, antibiotic alone) is 32 µg/mL (≈ 75.3 µM); in assay [1] (setting [6]) it was greater than 1024. The FIC index in the assay with MRSA is 0.562; in [2] it was less than 0.25.

For the compound Gentamicin, the MIC against MRSA (ATCC 33591) (Table 1, antibiotic alone) was 1 µg/mL; in assay [1] (setting [6]) it was 1. The FIC index in the assay on MRSA was determined as 0.5; in assay [2], 0.375.

With `[H]/N=C(/N)N[C@H]1[C@H](O)[C@@H](O)[C@H](O[C@@H]2O[C@@H](C)[C@](O)(C=O)[C@H]2O[C@@H]2O[C@@H](CO)[C@H](O)[C@@H](O)[C@@H]2NC)[C@@H](N/C(N)=N\[H])[C@@H]1O` [Streptomycin], the MIC in the assay with MRSA (ATCC 33591) (Table 1, antibiotic alone) came out at 16 µg/mL (≈ 27.5 µM); in [1] (setting [6]) it was 16. The FIC index came out at 0.266 in the assay with MRSA and 0.25 in assay [2].
